# Results published in paper PMC4928627 (Journal of Natural Products, 2016).
# Legend:
# [1] = system: CHIKV Indian Ocean strain 899; experiment: CHIKV CPE reduction assay; assay type: cell-based, chikungunya virus (CHIKV); details: BGM cells, 0.001 MOI CHIKV 899, day 5 p.i.
# BGM cells = experiment: Cytotoxic/cytostatic effect in uninfected cells; assay type: cell-based, buffalo green monkey; details: compound alone
# human cancer cell lines = details: growth inhibition; cited from earlier work
smiles,measurement,setting,value
"CCC/C=C/C=C/C(=O)O[C@H]1/C(=C/C(=O)OC)C[C@H]2C[C@H]([C@@H](C)O)OC(=O)C[C@H](O)C[C@@H]3C[C@H](OC(C)=O)C(C)(C)[C@](O)(C[C@@H]4C/C(=C/C(=O)OC)C[C@H](/C=C/C(C)(C)[C@]1(O)O2)O4)O3 [compound 1, Bryostatin 1, reference compound]",EC50 (concentration of compound that reduces the CHIKV-induced cytopathic effect by 50%),[1]; listed as bryostatin,ineffective
same,EC50 (concentration of compound that reduces the CHIKV-induced cytopathic effect by 50%),[1]; listed as bryostatin 1,inactive
C=C1C[C@H]2C[C@]3(O)O[C@H](C[C@@H](O)CC(=O)O[C@@H](CO)C[C@@H]4C/C(=C\C(=O)OC)[C@H](OC(=O)CCCCCCC)[C@@](O)(O4)C(C)(C)/C=C/[C@@H](C1)O2)C[C@H](O)C3(C)C [compound 18],EC50 (concentration of compound that reduces the CHIKV-induced cytopathic effect by 50%),[1],toxicity before any observable cell-protective effect
CCCCCCCC(=O)O[C@H]1/C(=C/C(=O)OC)C[C@H]2C[C@H](CO)OC(=O)C[C@H](O)C[C@@H]3C[C@H](OC(C)=O)C(C)(C)[C@H](C[C@@H]4CCO[C@H](/C=C/C(C)(C)[C@]1(O)O2)O4)O3 [compound 10],EC50 (concentration of compound that reduces the CHIKV-induced cytopathic effect by 50%),[1],potent
same,CC50 (concentration at which cell viability is 50% relative to untreated cells),BGM cells,nontoxic
C=C1C[C@H]2C[C@]3(O)O[C@H](C[C@@H](O)CC(=O)O[C@@H](CO)C[C@@H]4C/C(=C\C(=O)OC)[C@H](OC(=O)CCCCCCC)[C@@](O)(O4)C(C)(C)/C=C/[C@@H](C1)O2)C[C@H](OC(C)=O)C3(C)C [compound 19],EC50 (concentration of compound that reduces the CHIKV-induced cytopathic effect by 50%),[1],toxicity before any observable cell-protective effect
CCCCCCCC(=O)O[C@H]1/C(=C/C(=O)OC)C[C@H]2C[C@H](CO)OC(=O)C[C@H](O)C[C@@H]3CCC[C@H](C[C@@H]4CCO[C@H](/C=C/C(C)(C)[C@]1(O)O2)O4)O3 [compound 3],effectiveness of the analogue relative to the natural product (bryostatin),human cancer cell lines,2–3 orders of magnitude
